In patent US20100210562A1, “USE OF IL-1 RECEPTOR PEPTIDE, ALONE OR IN COMBINATION WITH D-ALA-GLN-OCTADECYL ESTER, AS A THERAPEUTIC AGENT” (priority 2007, published 2010):
Where no end group is shown, it is not given here.

Tests used:
HIV-1IIIB = details: positive controls; MTS readout
HCMV strain AD169 = assay: HCMV plaque formation assay in MRC-5 cells; details: for inhibition of HCMV plaque formation as compared to the virus control experiment: 10 micrograms per ml, 7-10 days
[1] = test system: hepatitis B virus (HBV) ayw strain; assay: HBV experimental assay system, secreted HBV DNA by TaqMan PCR in HepG2-2.2.15; assay type: cell-based; details: 10 micrograms per ml; 6 days; HBV DNA in supernatant
[2] = test system: Th1/Th2 cytokine production (IL-2, IL-4, IL-5, IFN-γ, TNF-α) in murine spleen cells; assay: Th1/Th2 cytokine profiling assay in ovalbumin-restimulated spleen cells; assay type: cell-based, Balb/c mice; details: 10 micrograms per ml; ovalbumin restimulation; 72 hours
From the text: The Balb/c mice (originated in 1923, it is a popular strain and is used in many different research disciplines. Also classified as an inbred from the production of 20 or more successive brother-sister matings, the Balb/c mouse is albino and small in size) were immunized on Days 1, 15, and 29 with Ovalbumin (Ovalbumin is the main protein found in egg white, commonly used to stimulate an immunological reaction in test animals) in PBS (5 micrograms/injection). On day 50, spleens of the mice were harvested (3 weeks after last boost with Ovalbumin). Cells were cultured (2×10^5/well in triplicate) and incubated with culture medium or test peptides—10 micrograms per ml—for 30 min. Thereafter, additional Ovalbumin was added to the cells at 10 micrograms/ml for in vitro restimulation of the cells. 72 hours later, cell supernatants were harvested and assayed using the Becton Dickinson Mouse Th1/Th2 Cytokine CBA Kit.

[3] = test system: Primary Human endothelial cells (HUVEC); assay: Endothelial cell migration assay; assay type: cell-based; details: 10 micrograms per ml; 22 hours
Procedure: Thereafter, designated concentration of testing peptides—10 micrograms per ml—was added in duplicate wells.

HUVEC = assay: Endothelial tube formation assay; assay type: cell-based, human; details: 10 micrograms per ml; 20 hours; average tubule length
From the text: Positive control was vehicle only. […] Raw data were expressed as average tubule lenghs in pixels±standard deviation.

Cc1cn([C@H]2C[C@H](N=[N+]=[N-])[C@@H](CO)O2)c(=O)[nH]c1=O [AZT]
antiviral activity of positive control compounds (HIV-1) (HIV-1IIIB): expected levels of antiviral activity

Nc1nc(O)c2ncn(COC(CO)CO)c2n1 [Ganciclovir, reference compound]
antiviral activity of positive control compound (HCMV) (HCMV strain AD169; positive control): expected levels of antiviral activity

CC(C)(C)NC(=O)[C@@H]1CN(Cc2cccnc2)CCN1C[C@@H](O)C[C@@H](Cc1ccccc1)C(=O)N[C@H]1c2ccccc2C[C@H]1O [indinavir]
antiviral activity of positive control compounds (HIV-1) (HIV-1IIIB): expected levels of antiviral activity

D-Ala-Gln-octadecyl ester [Peptide 2]
inhibition of HBV replication as compared to the virus control infection [1]: 66.0% | change of the production of IL-2 in murine spleen cells [2]: did not significantly change | change of the production of IL-4 in murine spleen cells [2]: did not significantly change | decrease of the production of IFN-γ in murine spleen cells [2]: 98.1% | decrease of the production of IL-5 in murine spleen cells [2]: 74.2% | decrease of the production of TNF-a in murine spleen cells [2]: 71.3% | increase of the migration of endothelial cells [3]: 2% | inhibition of the tube formation of human endothelial cells (HUVEC): 10% | inhibition of HCMV plaque formation as compared to the virus control experiment (HCMV strain AD169): 2.9%

Lys-Ile-Cys-Ile-Arg-Ile-Gln-Ile-Ser-OH (KICIRIQIS-OH) [Peptide 1]
inhibition of HBV replication as compared to the virus control infection [1]: 41.0% | change of the production of IL-2 in murine spleen cells [2]: did not significantly change | change of the production of IL-4 in murine spleen cells [2]: did not significantly change | decrease of the production of IFN-γ in murine spleen cells [2]: did not significantly change | decrease of the production of IL-5 in murine spleen cells [2]: did not significantly change | decrease of the production of TNF-a in murine spleen cells [2]: 97% | inhibition of the migration of human endothelial cells [3]: 32% | inhibition of the tube formation of human endothelial cells (HUVEC): 12% | inhibition of HCMV plaque formation as compared to the virus control experiment (HCMV strain AD169): did not inhibit
